In patent publication US20260374794A1, “COMPOUNDS TARGETING MUTANT OF P53” (JACOBIO PHARMACEUTICALS CO., LTD., priority 2022, published 2026) one finds EC50 and IC50 data, which are given here for 13 compounds.

Assay [1] addresses T1, p53(Y220C) (Homo sapiens, UniProt P04637, Y220C).
T1 construct: His-p53 Y220C (94-294) protein
Put plainly: In vitro DNA binding assay (HTRF), His-p53 Y220C (94-294) with biotinylated p53 consensus DNA. In kind it is biochemical. How it is done:
After His-p53 Y220C (94-294) protein was placed with a compound in the present of MAb Anti His-Tb cryptate (Cisbio, Cat. NO. 61HI2TLA) in a 384 well microplate (Greiner) for 15 min at 25 °C, the assay plate was transferred into 27 °C incubator and incubated for 60 min. Biotinalyted p53 consensus DNA (ID: p53-SEQUENCE 2 —F: 5′(biotin)-[…] 3′ —R: 5′ […] 3′) was added into the assay plate in the present of Streptaidin-d2 (Cisbio, Cat. NO. 610SADLF) cryptate (Final concentration: 20 mM HEPES pH=7.4, 75 mM KCl, 1 mM MgCl2, 0.1% (w/v) BSA, 1 mM DTT, 2.5 nM His-P53 Y220C (94-294) protein, 0.33 nM MAb Anti His-Tb cryptate, 2.5 nM Streptaidin-d2 cryptate, 10 nM Biotinalyted DNA) and incubated for another 60 min. Wells containing 2 μM reference compound Ref-1a served as high control, and wells containing same percentage of DMSO served as low control. Homogeneous time-resolved fluorescence (HTRF) signals were read on Tecan Spark multimode microplate reader. HTRF ratios for each individual well were calculated by equation: HTRF ratio=(Signal F665/Signal F620)*1000. The percent of activation of compounds treated wells were normalized between high control and low control (% Activation=(HTRF ratiocompound treated−HTRF ratiolow control)/(HTRF ratiohigh control−HTRF ratiolow control)*100%). Then the data were analyzed either by fitting a 4-parameter logistic model or by Excel to calculate EC50 values. And the EC50 was the concentration at 50% Activation on the curve.
A general note: In TR-FRET formats the signal depends on donor and acceptor labels being close together.

The subject of assay [2] is NUGC-3 (P53 Y220C). Put plainly: Cell viability assay (CellTiter-Glo). Format: cell-based. Conditions: NUGC-3 cells, 6 days, 37 °C. How it is done:
Cells were collected and counted. A desired number of cells was seeded into 96-well microplate and cultured in 37 °C cell incubator overnight. Compounds dissolved in cell culture medium were added into cell plate and cultured for 6 days. After balancing CellTiter-Glo reagent and cells at room temperature for 30 min, equal volume of CellTiter-Glo reagents was added to assay plate and shaken for 2 min for cell lysis. The cells were balanced at room temperature for 10 minutes and Luminescence signal was read using Envision. The percent of cell viability for compounds treated wells were normalized between High control and low control. Wells containing cell culture medium and same percentage DMSO served as Low control. Wells containing cells and same percentage DMSO served as High control. Cell viability (%)=(Luminescence readoutCompound treated−Luminescence readoutLow control)/(Luminescence readoutHigh control−Luminescence readoutLow control)*100%. Then the data were analyzed either by fitting a 4-parameter logistic model or by Excel to calculate IC50 values. And the IC50 was the concentration at […] Cell viability on the curve.
For orientation: Cellular ATP, detected with luciferase, serves as a proxy for viable cell number.

In assay [3] the target is p53(Y220C)_NUGC-3 (Homo sapiens, UniProt P04637, Y220C). Put plainly: Reporter gene assay (NUGC-3_P53_Luc cells). In kind it is cell-based. As for the experimental part: NUGC-3_P53_Luc single clonal cell line was established using pGL4.38[luc2P/p53 RE/Hygro] Vector (E365A, promega). NUGC-3_P53_Luc single clonal cells were cultured in 37 °C cell incubator before use. NUGC-3_P53_Luc cells were collected and washed twice with PBS to remove phenol red and then resuspended in medium to a proper concentration. Tested compound dilutions were transferred into 384 well assay plates (PerkinElmer). A desired number of cells was seeded into the assay plate and cultured for 6 hours at 37 °C cell incubator. Britelite plus Luciferase Assay Reagent were added into each well and the luminescence value was recorded on Envision. The percent of activity value of compounds treated wells was normalized between high control and low control. Wells containing cells and Ref-la (10 μM) served as high control, and wells containing cells and same percentage of DMSO served as low control. Activity value (%)=(Luminescence readoutCompound treated−Luminescence readoutLow control)/(Luminescence readoutHigh control−Luminescence readoutLow control)*100%. Then the data were analyzed either by fitting a 4-parameter logistic model or by Excel to calculate EC50 values and the EC50 was the concentration at 50% Activity on the curve.
A general note: A reporter such as luciferase makes a cellular process visible.

Setting [4] is: HTRF, 27 °C, His-p53 Y220C (94-294) 2.5 nM, biotinylated DNA 10 nM, normalized to 2 μM Ref-1a, EC50 = concentration at 50% Activation, read-out: p53(Y220C) EC50.
Where [5] appears, read: 6 hours, 37 °C, luciferase, normalized to Ref-1a 10 μM, EC50 = concentration at 50% Activity, read-out: p53(Y220C)_NUGC-3 EC50.

Read-outs that look alike come from different tables or passages of the source.

In general, IC50 refers to the concentration that gives 50% inhibition. The low end stands for inhibition by little substance, the high end for a need for much substance.

Consider `COc1c(NCC#Cc2sc3c(N[C@@H]4CCN(C)C[C@@H]4F)cccc3c2CC(F)(F)F)ccc(P(C)(C)=O)c1C(F)(F)F` [Example 42, (4-((3-(7-(((3S,4R)-3-fluoro-1-methylpiperidin-4-yl)amino)-3-(2,2,2-trifluoroethyl)benzo[b]thiophen-2-yl)prop-2-yn-1-yl)amino)-3-methoxy-2-(trifluoromethyl)phenyl)dimethylphosphine oxide], for which the figures for the EC50 in assay [1] (setting [4]) and in assay [3] (setting [5]) were 93 nM and 252 nM, respectively. The compound also had an IC50 in assay [2] (Homo sapiens, 144 h) of 1890 nM.
Regarding `CCOc1c(P(C)(C)=O)ccc(NCC#Cc2sc3c(N[C@@H]4CCN(C)C[C@@H]4F)cccc3c2CC(F)(F)F)c1OC` [Example 43, (2-ethoxy-4-((3-(7-(((3S,4R)-3-fluoro-1-methylpiperidin-4-yl)amino)-3-(2,2,2-trifluoroethyl)benzo[b]thiophen-2-yl)prop-2-yn-1-yl)amino)-3-methoxyphenyl)dimethylphosphine oxide], the EC50 in assay [1] (setting [4]) was 56 nM; in assay [3] (setting [5]) it was 160 nM. The compound further registered an IC50 in assay [2] (Homo sapiens, 144 h) of 590 nM.
In the same order, the values of `COc1nc([S@](C)(=N)=O)ccc1NCC#Cc1sc2c(N[C@@H]3CCN(C)C[C@@H]3F)cccc2c1CC(F)(F)F` [Example 44, (R)-(5-((3-(7-(((3S,4R)-3-fluoro-1-methylpiperidin-4-yl)amino)-3-(2,2,2-trifluoroethyl)benzo[b]thiophen-2-yl)prop-2-yn-1-yl)amino)-6-methoxypyridin-2-yl)(imino)(methyl)-16-sulfanone] are 46 nM, 84 nM and 1350 nM.
With `COc1nc([S@@](C)(=N)=O)ccc1NCC#Cc1sc2c(N[C@@H]3CCN(C)C[C@@H]3F)cccc2c1CC(F)(F)F` [Example 45, (S)-(5-((3-(7-(((3S,4R)-3-fluoro-1-methylpiperidin-4-yl)amino)-3-(2,2,2-trifluoroethyl)benzo[b]thiophen-2-yl)prop-2-yn-1-yl)amino)-6-methoxypyridin-2-yl)(imino)(methyl)-16-sulfanone], the EC50 in assay [1] (setting [4]) was determined as 65 nM; in assay [3] (setting [5]), 95 nM. The compound also returned an IC50 in assay [2] (Homo sapiens, 144 h) of 1330 nM.
Consider `COc1cc(P(C)(C)=O)ccc1NCC#Cc1sc2c(N[C@@H]3CN4CCC3CC4)cccc2c1CC(F)(F)F` [Example 48, (S)-(3-methoxy-4-((3-(7-(quinuclidin-3-ylamino)-3-(2,2,2-trifluoroethyl)benzo[b]thiophen-2-yl)prop-2-yn-1-yl)amino)phenyl)dimethylphosphine oxide], for which the EC50 in assay [1] was determined as 65 nM; in assay [3] (read-out: p53(Y220C)_NUGC-3 EC50, 6 hours, 37 °C, luciferase, normalized to Ref-1a 10 μM, EC50 = concentration at 50% Activity), 439 nM. Also, the IC50 in assay [2] (Homo sapiens, 144 h) amounted to 1600 nM.
For `COc1cc([S@](=N)(=O)C2COC2)ccc1NCC#Cc1sc2c(N[C@@H]3CCN(C)C[C@@H]3F)cccc2c1CC(F)(F)F` [Example 49, (R)-(4-((3-(7-(((3S,4R)-3-fluoro-1-methylpiperidin-4-yl)amino)-3-(2,2,2-trifluoroethyl)benzo[b]thiophen-2-yl)prop-2-yn-1-yl)amino)-3-methoxyphenyl)(imino)(oxetan-3-yl)-16-sulfanone], the EC50 in assay [1] (setting [4]) is 51 nM; in assay [3] (setting [5]) it was 64 nM. In addition, half-maximal inhibition in assay [2] (IC50) required 750 nM.
Turning to `COc1cc([S@@](=N)(=O)C2COC2)ccc1NCC#Cc1sc2c(N[C@@H]3CCN(C)C[C@@H]3F)cccc2c1CC(F)(F)F` [Example 50, (S)-(4-((3-(7-(((3S,4R)-3-fluoro-1-methylpiperidin-4-yl)amino)-3-(2,2,2-trifluoroethyl)benzo[b]thiophen-2-yl)prop-2-yn-1-yl)amino)-3-methoxyphenyl)(imino)(oxetan-3-yl)-16-sulfanone], the values for the EC50 in assay [1] (setting [4]) and in assay [3] (setting [5]) were 25 nM and 76 nM, respectively. In assay [2] (Homo sapiens, 144 h), this compound registered an IC50 of 1080 nM.
`COc1cc([S@](=N)(=O)C2CC2)ccc1NCC#Cc1sc2c(N[C@@H]3CCN(C)C[C@@H]3F)cccc2c1CC(F)(F)F` [Example 53, (R)-cyclopropyl(4-((3-(7-(((3S,4R)-3-fluoro-1-methylpiperidin-4-yl)amino)-3-(2,2,2-trifluoroethyl)benzo[b]thiophen-2-yl)prop-2-yn-1-yl)amino)-3-methoxyphenyl)(imino)-16-sulfanone]: the values for the EC50 in assay [1] (setting [4]) and in assay [3] (setting [5]) were 39 nM and 128 nM, respectively. In addition, the IC50 in assay [2] stood at 680 nM.
For `COc1cc([S@@](=N)(=O)C2CC2)ccc1NCC#Cc1sc2c(N[C@@H]3CCN(C)C[C@@H]3F)cccc2c1CC(F)(F)F` [Example 54, (S)-cyclopropyl(4-((3-(7-(((3S,4R)-3-fluoro-1-methylpiperidin-4-yl)amino)-3-(2,2,2-trifluoroethyl)benzo[b]thiophen-2-yl)prop-2-yn-1-yl)amino)-3-methoxyphenyl)(imino)-16-sulfanone], the values for the EC50 in assay [1] (setting [4]) and in assay [3] (setting [5]) were 58 nM and 143 nM, respectively. The same compound registered an IC50 in assay [2] of 1050 nM.
Take `CN1CC[C@@H](Nc2cccc3c(CC(F)(F)F)c(C#CCNc4ccc(P(C)(C)=O)c5c4C(=O)NC5)sc23)[C@@H](F)C1` [Example 55, 4-(dimethylphosphoryl)-7-((3-(7-(((3S,4R)-3-fluoro-1-methylpiperidin-4-yl)amino)-3-(2,2,2-trifluoroethyl)benzo[b]thiophen-2-yl)prop-2-yn-1-yl)amino)isoindolin-1-one]: the figures for the EC50 in assay [1] (setting [4]) and in assay [3] (setting [5]) were 31 nM and 196 nM, respectively. In assay [2] (Homo sapiens, 144 h), this compound registered an IC50 of 1290 nM.
For `[2H]C([2H])([2H])Oc1nc(P(C)(C)=O)ccc1NCC#Cc1sc2c(N[C@@H]3CCN(C)C[C@@H]3F)cccc2c1CC(F)(F)F` [Example 56, (5-((3-(7-(((3S,4R)-3-fluoro-1-methylpiperidin-4-yl)amino)-3-(2,2,2-trifluoroethyl)benzo[b]thiophen-2-yl)prop-2-yn-1-yl)amino)-6-(methoxy-d3)pyridin-2-yl)dimethylphosphine oxide], the figures for the EC50 in assay [1] (setting [4]) and in assay [3] (setting [5]) were 45 nM and 61 nM, respectively. Further, the IC50 in assay [2] (Homo sapiens, 144 h) turned out to be 430 nM.
With `COc1c(NCC#Cc2sc3c(N[C@@H]4CCN(C)C[C@@H]4F)cccc3c2CC(F)(F)F)ccc(P(C)(C)=O)c1OC` [Example 57, (4-((3-(7-(((3S,4R)-3-fluoro-1-methylpiperidin-4-yl)amino)-3-(2,2,2-trifluoroethyl)benzo[b]thiophen-2-yl)prop-2-yn-1-yl)amino)-2,3-dimethoxyphenyl)dimethylphosphine oxide], the EC50 in assay [1] (setting [4]) was 37 nM; in assay [3] (setting [5]), 164 nM. In assay [2] (Homo sapiens, 144 h), this compound yielded an IC50 of 790 nM.
Regarding `COc1cc([S@@](C)(=N)=O)ccc1NCC#Cc1sc2c(N[C@H]3CCN(C)C[C@@H]3F)cccc2c1[C@@H](O)C(F)(F)F` [Example 58, (S)-(4-((3-(7-(((3S,4S)-3-fluoro-1-methylpiperidin-4-yl)amino)-3-((R)-2,2,2-trifluoro-1-hydroxyethyl)benzo[b]thiophen-2-yl)prop-2-yn-1-yl)amino)-3-methoxyphenyl)(imino)(methyl)-16-sulfanone], the EC50 in assay [1] (setting [4]) is 35 nM; in assay [3] (setting [5]), 44 nM. Further, the IC50 in assay [2] (Homo sapiens, 144 h) turned out to be 400 nM.
